Assay results reported in ChEMBL document CHEMBL4831530, “Exploring Marine-Derived Ascochlorins as Novel Human Dihydroorotate Dehydrogenase Inhibitors for Treatment of Triple-Negative Breast Cancer” (J Med Chem, 2021).
Calls of active or inactive are those of the source. No cut-off for these calls is given here.

How the values were obtained:
MDA-MB-468 [1] = assay: Cytotoxicity against human MDA-MB-468 cells assessed as reduction in cell viability incubated for 24 hrs by CellTiter-Glo luminescent assay; format: functional, cell-based
MDA-MB-231 [2] = assay: Cytotoxicity against human MDA-MB-231 cells assessed as reduction in cell viability incubated for 24 hrs by CellTiter-Glo luminescent assay; format: functional, cell-based
[3] = molecular target: Dihydroorotate dehydrogenase (quinone), mitochondrial (Homo sapiens, UniProt Q02127); assay: Inhibition of recombinant N-terminal His-tagged human DHODH (31 to 395 residues) expressed in Escherichia coli using DL-dihydroorotic acid as substrate and Q0 as coenzyme by DCIP based assay
MDA-MB-468 [4] = assay: Inhibition of cell proliferation in human MDA-MB-468 cells at <=10 uM incubated for 4 days in presence of uridine by CellTiter-Glo luminescent assay; format: functional, cell-based; details: dose microM <=10, time 4.0 day
[5] = Toxicity in NOD/SCID mouse xenografted with patient-derived breast cancer cells assessed as effect on body weight loss at 5 mg/kg, ip administered 5 times a week and measured after 16 days; format: organism-based; details: in vivo, 384 h, time 16 day
[6] = Antitumor activity against patient-derived breast cancer cells xenografted in NOD/SCID mouse assessed as reduction in tumor volume at 5 mg/kg, ip administered 5 times a week and measured after 16 days relative to control; format: functional, Homo sapiens, Breast cancer cell line; set-up: scale not given: the % may be the effect or the level left; details: time 16 day
MDA-MB-231 [7] = assay: Induction of apoptosis in human MDA-MB-231 cells assessed as increase in cleaved caspase7 level measured after 2 days by Western blot analysis; format: functional, cell-based; details: dose 0.5-2 µM, time 2.0 day
MDA-MB-468 [8] = assay: Induction of apoptosis in human MDA-MB-468 cells assessed as increase in apoptotic cells incubated for 2 days by annexin-V/FITC propidium iodide staining based flow cytometry analysis; format: functional, cell-based; details: time 2.0 day
[9] = Toxicity in NOD/SCID mouse xenografted with patient-derived breast cancer cells assessed as effect on organ damage at 5 mg/kg, ip administered 5 times a week and measured after 16 days by hematoxylin and eosin staining based analysis; format: organism-based; details: in vivo, 384 h, time 16 day
MDA-MB-231 [10] = assay: Induction of apoptosis in human MDA-MB-231 cells assessed as increase in apoptotic cells incubated for 2 days by annexin-V/FITC propidium iodide staining based flow cytometry analysis; format: functional, cell-based; details: time 2.0 day
MDA-MB-468 [11] = assay: Induction of apoptosis in human MDA-MB-468 cells assessed as increase in cleaved caspase7 level measured after 2 days by Western blot analysis; format: functional, cell-based; details: dose 0.5-2 µM, time 2.0 day
MDA-MB-231 [12] = assay: Induction of apoptosis in human MDA-MB-231 cells assessed as increase in cleaved PARP1 level measured after 2 days by Western blot analysis; format: functional, cell-based; details: dose 0.5-2 µM, time 2.0 day
LNCaP C4-2B = assay: Cytotoxicity against human LNCaP C4-2B cells assessed as reduction in cell viability incubated for 24 hrs by CellTiter-Glo luminescent assay; format: functional, cell-based
MDA-MB-468 [13] = assay: Induction of apoptosis in human MDA-MB-468 cells assessed as increase in cleaved PARP1 level measured after 2 days by Western blot analysis; format: functional, cell-based; details: dose 0.5-2 µM, time 2.0 day
[14] = Antitumor activity against patient-derived breast cancer cells xenografted in NOD/SCID mouse assessed as tumor growth suppression at 5 mg/kg, ip administered 5 times a week and measured after 16 days relative to control; format: functional; details: Homo sapiens, Breast cancer cell line, 384 h, time 16 day
HL-60 = assay: Cytotoxicity against human HL-60 cells assessed as reduction in cell viability incubated for 24 hrs by CellTiter-Glo luminescent assay; format: functional, cell-based
MDA-MB-231 [15] = assay: Inhibition of cell proliferation in human MDA-MB-231 cells at <=10 uM incubated for 4 days in presence of uridine by CellTiter-Glo luminescent assay; format: functional, cell-based; details: dose microM <=10, time 4.0 day
143B = assay: Cytotoxicity against human 143B cells assessed as reduction in cell viability incubated for 24 hrs by CellTiter-Glo luminescent assay; format: functional, cell-based
[16] = Toxicity in NOD/SCID mouse xenografted with patient-derived breast cancer cells assessed as liver injury at 2.5 to 10 mg/kg, ip administered 5 times a week and measured after 16 days by hematoxylin and eosin staining based analysis; format: organism-based; details: in vivo, 384 h, dose 2.5-10 mg/kg, time 16 day
[17] = Toxicity in NOD/SCID mouse xenografted with patient-derived breast cancer cells assessed as body weight loss at 2.5 to 10 mg/kg, ip administered 5 times a week and measured after 16 days; format: organism-based; details: in vivo, 384 h, dose 2.5-10 mg/kg, time 16 day

Chain of Dihydroorotate dehydrogenase (quinone), mitochondrial (Q02127 whole entry, the tested form may be a part): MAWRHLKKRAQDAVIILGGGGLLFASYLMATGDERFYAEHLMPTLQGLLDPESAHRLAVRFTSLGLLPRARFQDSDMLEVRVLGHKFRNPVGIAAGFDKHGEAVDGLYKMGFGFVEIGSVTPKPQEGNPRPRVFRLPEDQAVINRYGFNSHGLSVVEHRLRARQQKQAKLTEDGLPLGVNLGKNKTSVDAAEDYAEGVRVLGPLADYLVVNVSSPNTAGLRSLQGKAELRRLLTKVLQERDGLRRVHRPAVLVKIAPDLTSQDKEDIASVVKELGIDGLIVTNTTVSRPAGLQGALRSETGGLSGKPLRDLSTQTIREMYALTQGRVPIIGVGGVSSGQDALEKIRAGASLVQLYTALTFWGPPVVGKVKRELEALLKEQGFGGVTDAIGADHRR

With O=c1[nH]cc(F)c(=O)[nH]1 [FLUOROURACIL] the IC50 (MDA-MB-468 [1]; Homo sapiens, MDA-MB-468, 24 h) was greater than 20 µM and the IC50 (MDA-MB-231 [2]; Homo sapiens, MDA-MB-231, 24 h) was 15 µM.
C/C(=C\Cc1c(O)c(Cl)c(C)c(C=O)c1O)CC/C(C)=C(\C)C(C)CCCO (configuration not stated) gave an IC50 (MDA-MB-468 [1]; Homo sapiens, MDA-MB-468, 24 h) of 7.5 µM, an IC50 (MDA-MB-231 [2]; Homo sapiens, MDA-MB-231, 24 h) of 12 µM and an IC50 [3] of 32 µM.
With C=C1CCC(=O)C(C)(C)[C@@H]1CC/C(C)=C/Cc1c(O)c(Cl)c(C)c(C(=O)O)c1O the IC50 (MDA-MB-468 [1]; Homo sapiens, MDA-MB-468, 24 h) was greater than 60 µM, the IC50 (MDA-MB-231 [2]; Homo sapiens, MDA-MB-231, 24 h) was greater than 60 µM and the IC50 [3] was 15 µM.
Compound C/C(=C\Cc1c(O)c(Cl)c(C)c(C=O)c1O)CC[C@H]1C(C)(C)C(=O)CC[C@]1(C)O has an IC50 (MDA-MB-468 [1]; Homo sapiens, MDA-MB-468, 24 h) greater than 60 µM, an IC50 (MDA-MB-231 [2]; Homo sapiens, MDA-MB-231, 24 h) greater than 60 µM and an IC50 [3] of 34 µM.
C/C(=C\Cc1c(O)cc(C)c(C=O)c1O)CC/C=C(\C)CC[C@H](O)C(C)(C)O showed an IC50 (MDA-MB-468 [1]; Homo sapiens, MDA-MB-468, 24 h) of 29 µM, an IC50 (MDA-MB-231 [2]; Homo sapiens, MDA-MB-231, 24 h) greater than 60 µM and an IC50 [3] of 5 µM.
Compound C/C(=C\Cc1c(O)c(Cl)c(C)c(C=O)c1O)CC/C=C(\C)CC[C@H](O)C(C)(C)O has an IC50 (MDA-MB-468 [1]; Homo sapiens, MDA-MB-468, 24 h) of 20 µM, an IC50 (MDA-MB-231 [2]; Homo sapiens, MDA-MB-231, 24 h) of 23 µM and an IC50 [3] of 3.7 µM.
In the case of C=C1CC[C@H](O)C(C)(C)[C@@H]1CC/C(C)=C/Cc1c(O)c(Cl)c(C)c(C=O)c1O, the inhibition (MDA-MB-468 [4]) is reported as “inactive”, the Activity [5] is reported as “Non-Toxic” and the IC50 (MDA-MB-468 [1]; Homo sapiens, MDA-MB-468, 24 h) is reported as 0.48 µM. For the same compound, the Activity [6] was 37.41%, the Activity (MDA-MB-231 [7]) was “Dose-Dependent Effect” and the Activity (MDA-MB-468 [8]) was “Dose-Dependent Effect”. The Activity [9] was “Non-Toxic”, the Activity (MDA-MB-231 [10]) was “Dose-Dependent Effect” and the Activity (MDA-MB-468 [11]) was “Dose-Dependent Effect”. For the same compound, the Activity (MDA-MB-231 [12]) was “Dose-Dependent Effect”, the Activity (LNCaP C4-2B) was “Dose-Dependent Effect” and the Activity (MDA-MB-468 [13]) was “Dose-Dependent Effect”. For the same compound, the inhibition in vivo at 5 mg/kg [14] was 51.7%, the Activity (HL-60) was “Dose-Dependent Effect” and the inhibition (MDA-MB-231 [15]) was “inactive”. The Activity (143B) was “Dose-Dependent Effect”, the IC50 (MDA-MB-231 [2]; Homo sapiens, MDA-MB-231, 24 h) was 0.65 µM and the IC50 [3] was 0.074 µM.
For C/C(=C\Cc1c(O)c(Cl)c(C)c(C(=O)O)c1O)CC/C=C(\C)CC[C@H](O)C(C)(C)O, the IC50 (MDA-MB-468 [1]; Homo sapiens, MDA-MB-468, 24 h) was 49 µM, the IC50 (MDA-MB-231 [2]; Homo sapiens, MDA-MB-231, 24 h) was greater than 60 µM and the IC50 [3] was 20 µM.
With C=C(C)[C@@H](O)CC/C(C)=C/CC/C(C)=C/Cc1c(O)c(Cl)c(C)c(C=O)c1O the IC50 (MDA-MB-468 [1]; Homo sapiens, MDA-MB-468, 24 h) was 1.7 µM, the IC50 (MDA-MB-231 [2]; Homo sapiens, MDA-MB-231, 24 h) was 3.3 µM and the IC50 [3] was 0.39 µM.
With C/C(=C\Cc1c(O)c(Cl)c(C)c(C=O)c1O)CC/C=C(\C)[C@@H]1CC(=O)C(C)(C)O1 [ASCOFURANONE] the IC50 (MDA-MB-468 [1]; Homo sapiens, MDA-MB-468, 24 h) was 7.1 µM, the IC50 (MDA-MB-231 [2]; Homo sapiens, MDA-MB-231, 24 h) was 5.2 µM and the IC50 [3] was 5.4 µM.
For C/C(=C\Cc1c(O)c(Cl)c(C)c(C=O)c1O)[C@H](O)C[C@@]1(C)[C@H](C)CCC(=O)[C@@H]1C, the IC50 (MDA-MB-468 [1]; Homo sapiens, MDA-MB-468, 24 h) was 45 µM, the IC50 (MDA-MB-231 [2]; Homo sapiens, MDA-MB-231, 24 h) was 38 µM and the IC50 [3] was 6.5 µM.
With Cc1c(-c2ccc(-c3ccccc3F)cc2)nc2ccc(F)cc2c1C(=O)O [BREQUINAR] the IC50 (MDA-MB-468 [1]; mda-mb-468) was 0.082 µM, the Activity [16] was “Toxic” and the Activity [17] was “Toxic”. The IC50 (MDA-MB-231 [2]; mda-mb-231) was 0.31 µM.
Compound C/C(=C\Cc1c(O)c(Cl)c(C)c(C=O)c1O)CC/C=C(\C)CC[C@@H]1OC1(C)C has an IC50 (MDA-MB-468 [1]; Homo sapiens, MDA-MB-468, 24 h) of 16 µM, an IC50 (MDA-MB-231 [2]; Homo sapiens, MDA-MB-231, 24 h) of 24 µM and an IC50 [3] of 1.6 µM.
For C/C(=C\Cc1c(O)cc(C)c(C=O)c1O)CC/C=C(\C)CCC(=O)C(C)(C)O, the IC50 (MDA-MB-468 [1]; Homo sapiens, MDA-MB-468, 24 h) was 57 µM, the IC50 (MDA-MB-231 [2]; Homo sapiens, MDA-MB-231, 24 h) was greater than 60 µM and the IC50 [3] was 7.9 µM.
